From the supplement of paper PMC5908809

Columns and labels:
[1] = tested on: normal NK cells expanded with K562-aAPC; experiment: percent inhibition of viability; higher = more inhibition; settings: 72 h, IL-2 2.5 ng/mL
Procedure: (§1)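 Drug sensitivity and resistance testing on K562-aAPC-expanded normal NK cells: 5 concentrations (10-fold steps over a 10,000-fold range), 72 h at 37 °C, viability by CellTiter-Glo normalised to DMSO and benzethonium chloride controls; DSS from the fitted curve.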

DERL-7 (IL-2 2.5 ng/mL) [2] = experiment: as above; settings: 72 h
IMC-1 (IL-2 20 ng/mL) [3] = experiment: as above; settings: 72 h
KAI3 (IL-2 2.5 ng/mL) [4] = experiment: as above; settings: 72 h
KHYG-1 (IL-2 2.5 ng/mL) [5] = experiment: as above; settings: 72 h
NK-92 (IL-2 2.5 ng/mL) [6] = experiment: as above; settings: 72 h
NK-YS (IL-2 2.5 ng/mL) [7] = experiment: as above; settings: 72 h
NKL (IL-2 2.5 ng/mL) [8] = experiment: as above; settings: 72 h
SNK-6 (IL-2 2.5 ng/mL) [9] = experiment: as above; settings: 72 h
YT (IL-2 2.5 ng/mL) [10] = experiment: as above; settings: 72 h
[11] = tested on: normal primary NK cells, pool 1 (3 donors) (IL-2 2.5 ng/mL); experiment: as above; settings: 72 h
[12] = tested on: normal primary NK cells, pool 1 (3 donors), resting (IL-2 0 ng/mL); experiment: as above; settings: 72 h
[13] = tested on: normal primary NK cells, pool 2 (3 donors) (IL-2 2.5 ng/mL); experiment: as above; settings: 72 h
[14] = tested on: normal primary NK cells, pool 3 (3 donors) (IL-2 2.5 ng/mL); experiment: as above; settings: 72 h
[15] = tested on: normal NK cells expanded with K562-aAPC; experiment: drug sensitivity score (DSS) (DSS units); higher = more sensitive; extreme values may be limits of the assay; settings: 72 h; IL-2 2.5 ng/mL
Procedure: as §1

DERL-7 (IL-2 2.5 ng/mL) [16] = experiment: as above; settings: 72 h
IMC-1 (IL-2 20 ng/mL) [17] = experiment: as above; settings: 72 h
KAI3 (IL-2 2.5 ng/mL) [18] = experiment: as above; settings: 72 h
KHYG-1 (IL-2 2.5 ng/mL) [19] = experiment: as above; settings: 72 h
NK-92 (IL-2 2.5 ng/mL) [20] = experiment: as above; settings: 72 h
NK-YS (IL-2 2.5 ng/mL) [21] = experiment: as above; settings: 72 h
NKL (IL-2 2.5 ng/mL) [22] = experiment: as above; settings: 72 h
SNK-6 (IL-2 2.5 ng/mL) [23] = experiment: as above; settings: 72 h
YT (IL-2 2.5 ng/mL) [24] = experiment: as above; settings: 72 h
[25] = tested on: normal primary NK cells, pool 1 (3 donors) (IL-2 2.5 ng/mL); experiment: as above; settings: 72 h
[26] = tested on: normal primary NK cells, pool 1 (3 donors), resting (IL-2 0 ng/mL); experiment: as above; settings: 72 h
[27] = tested on: normal primary NK cells, pool 2 (3 donors) (IL-2 2.5 ng/mL); experiment: as above; settings: 72 h
[28] = tested on: normal primary NK cells, pool 3 (3 donors) (IL-2 2.5 ng/mL); experiment: as above; settings: 72 h

Cc1ccc(NC(=O)c2ccc(CN3CC[C@H](N(C)C)C3)c(C(F)(F)F)c2)cc1Nc1nccc(-c2cncnc2)n1 [Bafetinib] (max concentration tested 1000 nM)
percent inhibition of viability [%]
Settings	0.1 nM	1 nM	10 nM	100 nM	1000 nM
DERL-7 (IL-2 2.5 ng/mL) [2]	-14	2.29	-3.89	-8.4	14.2
IMC-1 (IL-2 20 ng/mL) [3]	-6.49	-4.43	-0.85	0.31	1.78
KAI3 (IL-2 2.5 ng/mL) [4]	0.47	0.29	2.91	12	41.7
KHYG-1 (IL-2 2.5 ng/mL) [5]	-4.48	-4.63	1.74	7.43	22.3
NK-92 (IL-2 2.5 ng/mL) [6]	-11.6	-4.05	0.45	9.61	26.8
NK-YS (IL-2 2.5 ng/mL) [7]	-4.77	-6.95	-3.78	-1.77	18.9
NKL (IL-2 2.5 ng/mL) [8]	5.49	-2.75	4.28	18	50.2
SNK-6 (IL-2 2.5 ng/mL) [9]	-21	16.9	-16.6	-25.9	-21.8
YT (IL-2 2.5 ng/mL) [10]	-6.07	-5.69	-1.09	1.37	19.6
[1]	-3.13	-5.16	-2.83	2.67	30.9
[11]	-1.48	-8.42	-2.74	1.21	12
[12]	-11.6	-4.75	5.74	-0.62	2.62
[13]	-9.03	-9.08	-6.83	2.13	11.8
[14]	-3.5	-5.78	-5.64	-5.35	13.7

Settings	drug sensitivity score
DERL-7 (IL-2 2.5 ng/mL) [16]	0.06
IMC-1 (IL-2 20 ng/mL) [17]	0
KAI3 (IL-2 2.5 ng/mL) [18]	3.8
KHYG-1 (IL-2 2.5 ng/mL) [19]	1.5
NK-92 (IL-2 2.5 ng/mL) [20]	2.35
NK-YS (IL-2 2.5 ng/mL) [21]	0.42
NKL (IL-2 2.5 ng/mL) [22]	4.77
SNK-6 (IL-2 2.5 ng/mL) [23]	0
YT (IL-2 2.5 ng/mL) [24]	0.72
[15]	1.77
[25]	0.1
[26]	0
[27]	0.12
[28]	0.06

CC(O)(CS(=O)(=O)c1ccc(F)cc1)C(=O)Nc1ccc(C#N)c(C(F)(F)F)c1 (stereo not drawn) [Bicalutamide] (max concentration tested 10000 nM)
percent inhibition of viability [%]
Settings	1 nM	10 nM	100 nM	1000 nM	10000 nM
DERL-7 (IL-2 2.5 ng/mL) [2]	1.65	7.46	-4.98	5.71	5.22
IMC-1 (IL-2 20 ng/mL) [3]	3.29	5.96	8.36	9.75	42.3
KAI3 (IL-2 2.5 ng/mL) [4]	14.6	10.8	21.5	20.8	43.6
KHYG-1 (IL-2 2.5 ng/mL) [5]	3.99	22.1	3.98	27.4	19.9
NK-92 (IL-2 2.5 ng/mL) [6]	10.3	8.57	4.92	20.1	30.6
NK-YS (IL-2 2.5 ng/mL) [7]	9.7	4	13.7	9.96	23.5
NKL (IL-2 2.5 ng/mL) [8]	0.19	16.2	5.15	40.3	35.9
SNK-6 (IL-2 2.5 ng/mL) [9]	9.4	13.4	4.02	9.59	26.6
YT (IL-2 2.5 ng/mL) [10]	3.05	13.5	3.8	17.9	16.7
[1]	5.68	3.24	1.15	11.5	13.4
[11]	-3.4	-8.36	-1.19	-15.8	6.46
[12]	2.97	-8.07	-9.37	-26.1	-10.4
[13]	-0.02	-1.32	-0.86	-0.13	7.12
[14]	3.23	-2.54	5.11	-2.8	-0.48

Settings	drug sensitivity score
DERL-7 (IL-2 2.5 ng/mL) [16]	0
IMC-1 (IL-2 20 ng/mL) [17]	3.5
KAI3 (IL-2 2.5 ng/mL) [18]	7.75
KHYG-1 (IL-2 2.5 ng/mL) [19]	4.48
NK-92 (IL-2 2.5 ng/mL) [20]	3.61
NK-YS (IL-2 2.5 ng/mL) [21]	2.2
NKL (IL-2 2.5 ng/mL) [22]	8.09
SNK-6 (IL-2 2.5 ng/mL) [23]	2.16
YT (IL-2 2.5 ng/mL) [24]	1.84
[15]	0.74
[25]	0
[26]	0
[27]	0
[28]	0
